{"source": "paper PMC7589021", "about": "“Setup and Validation of a Reliable Docking Protocol for the Development of Neuroprotective Agents by Targeting the Sigma-1 Receptor (S1R)” (International Journal of Molecular Sciences, 2020)", "key": {"[1]": {"target": "T1, S1R (Cavia porcellus, UniProt Q60492)", "T1 sequence (Q60492 whole entry)": "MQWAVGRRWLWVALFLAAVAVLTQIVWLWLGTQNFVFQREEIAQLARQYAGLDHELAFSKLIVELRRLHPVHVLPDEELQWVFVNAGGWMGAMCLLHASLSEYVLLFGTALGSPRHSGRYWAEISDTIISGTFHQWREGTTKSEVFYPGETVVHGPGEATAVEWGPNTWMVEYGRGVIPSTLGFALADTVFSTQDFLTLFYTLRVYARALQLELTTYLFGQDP", "assay": "S1R binding affinity of previously published compounds", "settings": "ln of experimental Ki S1R (nM), Table 1", "description": "Table 1 Glide Gscores, calculated Ligand Efficiencies and experimentally determined Ki values of compounds 1–8 employed for the elaboration of the docking model. | column: ln(Ki)"}, "[2]": {"target": "T1, S1R", "assay": "S1R radioligand binding assay ([3H](+)-pentazocine, guinea pig brain cortex membranes)", "parameters": "The thawed membrane preparation of guinea pig brain cortex; from tissue; host or cells: guinea pig brain (cerebral) cortex membranes"}, "[3]": {"target": "T2, S2R (Rattus norvegicus, UniProt Q5U3Y7)", "T2 construct": "The assay was performed using 150 µg of rat liver homogenate; from tissue; host or cells: rat liver homogenate / membranes", "T2 sequence (Q5U3Y7 1-176)": "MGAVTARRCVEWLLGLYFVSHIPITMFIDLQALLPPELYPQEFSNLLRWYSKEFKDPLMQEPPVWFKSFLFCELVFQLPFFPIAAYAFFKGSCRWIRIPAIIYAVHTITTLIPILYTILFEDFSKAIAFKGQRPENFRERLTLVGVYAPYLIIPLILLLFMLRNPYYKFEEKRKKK", "assay": "S2R radioligand binding assay ([3H]-DTG, rat liver membranes)", "settings": "(+)-pentazocine to mask S1R"}, "[4]": {"target": "AChE (Electrophorus electricus, UniProt O42275)", "sequence (O42275 24-633)": "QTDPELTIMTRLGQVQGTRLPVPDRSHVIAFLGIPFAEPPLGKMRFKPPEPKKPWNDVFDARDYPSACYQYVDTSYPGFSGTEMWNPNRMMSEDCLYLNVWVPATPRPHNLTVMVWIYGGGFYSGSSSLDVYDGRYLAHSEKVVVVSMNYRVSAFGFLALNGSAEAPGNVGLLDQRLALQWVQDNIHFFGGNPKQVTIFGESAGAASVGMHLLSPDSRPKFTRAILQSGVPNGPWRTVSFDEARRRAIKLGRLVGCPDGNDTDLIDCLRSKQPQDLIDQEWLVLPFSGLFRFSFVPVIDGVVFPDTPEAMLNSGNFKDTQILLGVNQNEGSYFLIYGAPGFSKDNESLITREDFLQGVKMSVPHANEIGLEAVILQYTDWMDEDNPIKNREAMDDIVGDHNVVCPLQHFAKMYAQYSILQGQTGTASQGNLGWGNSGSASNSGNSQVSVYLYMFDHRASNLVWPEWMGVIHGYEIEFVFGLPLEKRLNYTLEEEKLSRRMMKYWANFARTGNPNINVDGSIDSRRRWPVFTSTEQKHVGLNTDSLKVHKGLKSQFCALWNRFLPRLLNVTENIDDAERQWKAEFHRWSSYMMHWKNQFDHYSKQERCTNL", "assay": "Inhibition of AChE, modified Ellman's method", "assay_type": "biochemical", "experimental": "To test the potential to inhibit AChE, a spectrophotometric procedure was adopted, based on the well-known Ellman’s method. Firstly, the target compound was tested at a concentration of 50 μM and a 72% of inhibition was observed.\nAChE inhibitory activity of compound 12 was determined by the modified Ellman’s method. Briefly, a stock solution of tested compound (5.0 mM) was prepared in DMSO and diluted using 0.1 M KH2PO4/K2HPO4 buffer (pH 8.0) to afford a final concentration range between […]. Enzyme solutions were prepared by dissolving lyophilized powder in double-distilled water. […] The reaction was started by addition of […] of the 0.075 M substrate solution (acetylthiocholine iodide) and exactly 2 min after substrate addition, the absorption was measured at 25 °C at 412 nm. In enzyme-free assay systems the non-enzymatic hydrolysis of acetylthiocholine iodide was measured, and the results were employed as blank. […] Each experiment was performed in triplicate, and the mean ± standard deviation was calculated. Data from concentration-inhibition experiments of the inhibitors were calculated by nonlinear regression analysis, using the Excel program."}, "[5]": {"target": "T3, GluN2 subunit of NMDA (GluN1a and GluN2B subunits) (Homo sapiens, UniProt Q05586+Q13224)", "T3 construct": "expressed in transfected cells; host or cells: L(tk-) cells, stably transfected", "T3 sequence (Q13224 27-1484, other chains not shown)": "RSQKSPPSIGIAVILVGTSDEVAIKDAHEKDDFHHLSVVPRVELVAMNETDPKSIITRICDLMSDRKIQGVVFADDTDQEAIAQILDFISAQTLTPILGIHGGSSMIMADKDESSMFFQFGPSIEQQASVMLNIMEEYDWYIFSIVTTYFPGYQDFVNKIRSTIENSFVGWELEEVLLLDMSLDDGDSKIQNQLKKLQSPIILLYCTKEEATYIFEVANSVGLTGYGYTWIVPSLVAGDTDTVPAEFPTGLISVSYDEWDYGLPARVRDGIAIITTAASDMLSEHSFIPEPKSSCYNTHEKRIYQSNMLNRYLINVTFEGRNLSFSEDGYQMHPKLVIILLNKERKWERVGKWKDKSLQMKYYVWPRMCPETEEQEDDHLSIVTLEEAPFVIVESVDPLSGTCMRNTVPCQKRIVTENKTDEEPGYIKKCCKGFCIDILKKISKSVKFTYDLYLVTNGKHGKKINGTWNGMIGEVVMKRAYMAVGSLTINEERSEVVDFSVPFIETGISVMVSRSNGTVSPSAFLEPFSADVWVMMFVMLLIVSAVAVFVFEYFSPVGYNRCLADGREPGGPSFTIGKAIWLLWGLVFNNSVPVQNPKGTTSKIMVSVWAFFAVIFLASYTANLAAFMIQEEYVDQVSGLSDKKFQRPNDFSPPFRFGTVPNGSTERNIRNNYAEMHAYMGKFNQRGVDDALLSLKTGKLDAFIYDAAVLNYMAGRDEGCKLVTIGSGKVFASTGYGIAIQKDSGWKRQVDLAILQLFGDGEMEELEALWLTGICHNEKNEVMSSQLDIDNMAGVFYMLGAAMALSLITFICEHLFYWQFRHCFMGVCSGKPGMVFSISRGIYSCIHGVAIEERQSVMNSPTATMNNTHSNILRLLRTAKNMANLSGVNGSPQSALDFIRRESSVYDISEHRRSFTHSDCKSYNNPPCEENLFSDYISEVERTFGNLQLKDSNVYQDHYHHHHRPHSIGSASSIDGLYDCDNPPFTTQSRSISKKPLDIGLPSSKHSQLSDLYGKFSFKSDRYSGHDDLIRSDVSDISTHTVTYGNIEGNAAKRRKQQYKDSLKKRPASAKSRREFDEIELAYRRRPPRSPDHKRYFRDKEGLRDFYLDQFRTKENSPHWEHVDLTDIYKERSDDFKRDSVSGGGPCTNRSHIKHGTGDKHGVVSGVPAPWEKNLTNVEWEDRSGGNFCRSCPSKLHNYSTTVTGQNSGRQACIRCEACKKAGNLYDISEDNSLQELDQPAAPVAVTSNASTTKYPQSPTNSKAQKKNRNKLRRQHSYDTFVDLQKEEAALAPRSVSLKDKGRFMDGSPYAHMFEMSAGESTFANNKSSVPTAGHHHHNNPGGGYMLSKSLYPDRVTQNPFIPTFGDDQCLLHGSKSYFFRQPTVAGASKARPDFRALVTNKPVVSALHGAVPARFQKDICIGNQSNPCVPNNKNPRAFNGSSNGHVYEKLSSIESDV", "assay": "GluN2 binding assay ([3H]-ifenprodil, membranes of transfected L(tk-) cells)"}, "[6]": {"tested_on": "HeLa cells", "assay": "Osmotic water permeability (AQP-mediated), stopped-flow light scattering", "assay_type": "cell-based", "experimental": "Prompted by these encouraging results, we decided to draw the antioxidant profile of compound 12, since it is well-known that oxidative stress is connected with insurgence and exacerbation of neurodegenerative diseases. In particular, the AQP-mediated antioxidant properties of RC-33 (i.e., 1-[3-(1,1′-biphen)-4-yl]butylpiperidine, our in-house developed selective S1R agonist) and 12 were evaluated in HeLa cells, following the procedures reported in our most recent studies. Briefly, osmotic water permeability was measured by a stopped-flow light scattering method and expressed as percentage of k relative. Compounds RC-33 and 12 were tested at 20 µM whereas curcumin was used as control of the goodness of the cellular assay, since its capability to affect the AQPs permeability was assessed in our previous work. The compounds were initially assessed on non-stressed HeLa cells to evaluate the capability of the compounds to affect the AQPs permeability in absence of an oxidant stimuli. […] Conversely, curcumin directly affect AQPs resulting in a significative permeability reduction (75% of k relative). RC-33, 12 and curcumin were further assessed under oxidative stress conditions induced by heating the cell cultures. […] Thus, to probe the entanglement between S1R, AQP permeability and antioxidant protection, compound 12 was assessed against stressed HeLa cells in presence of NE-100, a well-known and fully characterized S1R antagonist.\nOsmotic water permeability was measured in HeLa cells suspension by the stopped-flow light scattering method as previously described.\nThe antioxidant effect of compound 12 on water permeability HeLa cells were divided into different groups: (1) Controls, cells incubated at room temperature (21 °C); (2) heat-stressed cells, cells subjected to heat-treatment by incubating them in a water thermostatic and shacking bath at 42 °C for 3 h; (3) heat-stressed cells pre-treated, cells heat-stressed in the presence of the compound 12 at 20 µM final concentration (dissolved in methanol). Moreover, to test the possible capacity of the molecules to affect the AQP gating in normal condition, HeLa cells were treated in the presence and in the absence of the compounds by incubating at 21 °C for 3 h."}, "[7]": {"target": "S2R", "parameters": "method as in PMID 30223122", "settings": "read-out: KiS2R; cited from earlier work"}, "[8]": {"target": "T1, S1R", "parameters": "method as in PMID 30223122", "settings": "read-out: KiS1R; cited from earlier work"}, "[9]": {"settings": "guinea pig cerebral cortex membranes, [3H]-(+)-pentazocine, read-out: Experimental Ki S1R (nM) ± SEM"}, "[10]": {"settings": "ln of experimental Ki S1R (nM), read-out: Experimental Ki S1R (converted)"}, "[11]": {"settings": "Experimental Ki S1R (nM) ± SEM, guinea pig cerebral cortex membranes, [3H]-(+)-pentazocine"}, "[12]": {"settings": "Experimental ln(Ki), ln of experimental Ki S1R (nM)"}, "[13]": {"settings": "heat-stressed HeLa cells (42 °C 3 h), pre-treated at 20 µM"}, "[14]": {"settings": "non-stressed HeLa cells, 21 °C 3 h, 20 µM"}}, "note": "Where a name gives a salt, the structure may show the parent alone. Read-outs that look alike come from different tables or passages of the source."}
{"smiles": "O=C(CN1CCCCC1)c1ccc(-c2ccccc2)cc1", "note": "(as salt: hydrochloride) [Compound 8, 1-(2-([1,1’-biphenyl]-4-yl)-2-oxoethyl)piperidin-1-ium hydrochloride]", "values": [{"measurement": "melting point", "result": "236 to 238", "unit": "°C"}]}
{"smiles": "O=C(CN1CCCCC1)c1ccc(OCc2ccccc2)cc1", "note": "(as salt: hydrochloride) [Compound 9, 1-(2-(4-(benzyloxy)phenyl)-2-oxoethyl)piperidin-1-ium hydrochloride]", "values": [{"measurement": "melting point", "result": "86 to 88", "unit": "°C"}]}
{"smiles": "O=C(CCCN1CCCCC1)c1ccc(OCc2ccccc2)cc1", "note": "(as salt: hydrochloride) [Compound 13, 1-(4-(4-(benzyloxy)phenyl)-4-oxobutyl)piperidin-1-ium hydrochloride]", "values": [{"measurement": "melting point", "result": "188 to 190", "unit": "°C"}]}
{"smiles": "O=C(CN1CCC(Cc2ccccc2)CC1)c1ccc2ccccc2c1", "note": "[Compound 1]", "values": [{"measurement": "ln(Ki)", "setting": "[1]", "result": 3.296}]}
{"smiles": "O=C(CCN1CCCCC1)c1ccc(-c2ccccc2)cc1", "note": "[Compound 2]", "values": [{"measurement": "ln(Ki)", "setting": "[1]", "result": 2.708}]}
{"smiles": "O=C(CCN1CCCCC1)c1ccc2ccccc2c1", "note": "[Compound 3]", "values": [{"measurement": "ln(Ki)", "setting": "[1]", "result": 0.788}]}
{"smiles": "O=C(CCN1CCOCC1)c1ccc(-c2ccccc2)cc1", "note": "[Compound 4]", "values": [{"measurement": "ln(Ki)", "setting": "[1]", "result": 1.065}]}
{"smiles": "O=C(CCN1CCOCC1)c1ccc2ccccc2c1", "note": "[Compound 5]", "values": [{"measurement": "ln(Ki)", "setting": "[1]", "result": 2.197}]}
{"smiles": "O=C(CN1CCC(Cc2ccccc2)CC1)c1ccc(-c2ccccc2)cc1", "note": "[Compound 6]", "values": [{"measurement": "ln(Ki)", "setting": "[1]", "result": 5.829}]}
{"smiles": "O=C(CN1CCCCC1)c1ccc(-c2ccccc2)cc1", "note": "[Compound 8, 1-(2-([1,1’-biphenyl]-4-yl)-2-oxoethyl)piperidin-1-ium hydrochloride]", "values": [{"measurement": "Ki", "setting": "[2]; [9]", "result": "132 ± 55", "unit": "nM"}, {"measurement": "Ki", "setting": "[2]; [10]", "result": 132, "unit": "nM"}]}
{"smiles": "O=C(CN1CCCCC1)c1ccc(OCc2ccccc2)cc1", "note": "[Compound 9, 1-(2-(4-(benzyloxy)phenyl)-2-oxoethyl)piperidin-1-ium hydrochloride]", "values": [{"measurement": "Ki", "setting": "[2]; [11]", "result": "48 ± 12", "unit": "nM"}, {"measurement": "Ki", "setting": "[2]; [12]", "result": 48, "unit": "nM"}]}
{"smiles": "O=C(CCN1CCCCC1)c1ccc(OCc2ccccc2)cc1", "note": "[Compound 10, 1-(3-(4-(benzyloxy)phenyl)-3-oxopropyl)piperidin-1-ium hydrochloride]", "values": [{"measurement": "Ki", "setting": "[2]; [9]", "result": "25 ± 7", "unit": "nM"}, {"measurement": "Ki", "setting": "[2]; [10]", "result": 25, "unit": "nM"}]}
{"smiles": "O=C(CCCN1CCCCC1)c1ccc2ccccc2c1", "note": "[Compound 11, 1-(4-(naphthalen-2-yl)-4-oxobutyl)piperidin-1-ium hydrochloride]", "values": [{"measurement": "Ki", "setting": "[3]", "result": 50, "unit": "nM"}, {"measurement": "Ki", "setting": "[2]; [9]", "result": "4.4 ± 2.4", "unit": "nM"}, {"measurement": "Ki", "setting": "[2]; [10]", "result": 4.4, "unit": "nM"}]}
{"smiles": "O=C(CCCN1CCCCC1)c1ccc(-c2ccccc2)cc1", "note": "[Compound 12, 1-(4-([1,1’-biphenyl]-4-yl)-4-oxobutyl)piperidin-1-ium hydrochloride]", "values": [{"measurement": "inhibition at 50 µM", "setting": "[4]; 50 μM", "result": 72, "unit": "%"}, {"measurement": "IC50", "setting": "[4]; Ellman's method", "result": "680 ± 90", "unit": "nM"}, {"measurement": "Ki", "setting": "[5]", "result": 200, "unit": "nM"}, {"measurement": "Ki", "setting": "[2]; [11]", "result": "33 ± 14", "unit": "nM"}, {"measurement": "Ki", "setting": "[2]; [12]", "result": 33, "unit": "nM"}, {"measurement": "osmotic water permeability, percent of k relative", "setting": "[6]; [13]", "result": "able to prevent the water permeability reduction"}, {"measurement": "osmotic water permeability, percent of k relative", "setting": "[6]; [14]", "result": "did not affect the water permeability"}]}
{"smiles": "O=C(CCCN1CCCCC1)c1ccc(OCc2ccccc2)cc1", "note": "[Compound 13, 1-(4-(4-(benzyloxy)phenyl)-4-oxobutyl)piperidin-1-ium hydrochloride]", "values": [{"measurement": "Ki", "setting": "[2]; [9]", "result": "87 ± 28", "unit": "nM"}, {"measurement": "Ki", "setting": "[2]; [10]", "result": 87, "unit": "nM"}]}
{"smiles": "CCCN(CCC)CCc1ccc(OC)c(OCCc2ccccc2)c1", "note": "[NE-100]", "values": [{"measurement": "osmotic water permeability, percent of k relative", "setting": "[6]; [13]", "result": "78 % of k relative"}]}
{"smiles": "CC(CCN1CCCCC1)c1ccc(-c2ccccc2)cc1", "note": "(stereo not shown) [RC-33, 1-[3-(1,1′-biphen)-4-yl]butylpiperidine]", "values": [{"measurement": "Ki", "setting": "[7]", "result": "45 ± 16", "unit": "nM"}, {"measurement": "Ki", "setting": "[8]", "result": "1.8 ± 0.1", "unit": "nM"}, {"measurement": "osmotic water permeability, percent of k relative", "setting": "[6]; [13]", "result": "able to prevent the water permeability reduction"}, {"measurement": "osmotic water permeability, percent of k relative", "setting": "[6]; [14]", "result": "comparable"}]}
{"smiles": "COc1cc(/C=C/C(=O)CC(=O)/C=C/c2ccc(O)c(OC)c2)ccc1O", "note": "[curcumin]", "values": [{"measurement": "osmotic water permeability, percent of k relative", "setting": "[6]; [13]", "result": "not able to protect the AQPs’ permeability properties"}, {"measurement": "osmotic water permeability, percent of k relative", "setting": "[6]; [14]", "result": "75 % of k relative"}]}
